# Laboratory results: patent publication US11319299B2, “Substituted carboxamides as inhibitors of WDR5 protein-protein binding” (PROPELLON THERAPEUTICS INC., priority 2016, dated 2022)
# pKd: −log10 of the molar value.
# Molecular target: WDR5 (Homo sapiens (Human), UniProt P61964)
# Assay: Surface Plasmon Resonance (SPR) assay, KD and residence time
# Assay type: binding
# Settings: surface plasmon resonance (SPR) assay; read-out: WDR5 binding affinity (KD)
row,Structure (SMILES),pKd
1,"C[C@@H]1CN(c2cc(F)c(-c3cnc(O)c(C#N)c3)cc2NC(=O)c2c[nH]c(=O)cc2C(F)(F)F)C[C@H](C)N1C [Example 123, N-[5-(5-cyano-6-hydroxypyridin-3-yl)-4-fluoro-2-[(3R,5S)-3,4,5-trimethylpiperazin-1-yl]phenyl]-6-oxo-4-(trifluoromethyl)-1H-pyridine-3-carboxamide]",8.01
2,"C[C@@H]1CN(c2cc(F)c(-c3ccc(N4CCOCC4)c(F)c3)cc2NC(=O)c2c[nH]c(=O)cc2C(F)(F)F)C[C@H](C)N1C [Example 124, N-[4-fluoro-5-(3-fluoro-4-morpholin-4-ylphenyl)-2-[(3R,5S)-3,4,5-trimethylpiperazin-1-yl]phenyl]-6-oxo-4-(trifluoromethyl)-1H-pyridine-3-carboxamide]",9.36
3,"C[C@@H]1CN(c2cc(F)c(-c3cccc(OCC4CC4)c3)cc2NC(=O)c2c[nH]c(=O)cc2C(F)(F)F)C[C@H](C)N1C [Example 125, N-[5-[3-(cyclopropylmethoxy)phenyl]-4-fluoro-2-[(3R,5S)-3,4,5-trimethylpiperazin-1-yl]phenyl]-6-oxo-4-(trifluoromethyl)-1H-pyridine-3-carboxamide]",7.96
4,"C[C@@H]1CN(c2cc(F)c(-c3cnc(N4CCOCC4)nc3)cc2NC(=O)c2cccc(N(C)C)c2)C[C@H](C)N1C [Example 126, 3-(dimethylamino)-N-[4-fluoro-5-(2-morpholin-4-ylpyrimidin-5-yl)-2-[(3R,5S)-3,4,5-trimethylpiperazin-1-yl]phenyl]benzamide]",5.46
5,"C[C@@H]1CN(c2cc(F)c(-c3cnc(N4CCOCC4)nc3)cc2NC(=O)c2cocn2)C[C@H](C)N1C [Example 127, N-[4-fluoro-5-(2-morpholin-4-ylpyrimidin-5-yl)-2-[(3R,5S)-3,4,5-trimethylpiperazin-1-yl]phenyl]-1,3-oxazole-4-carboxamide]",< 6.70
6,"CC(C)Oc1ncc(-c2cc(NC(=O)c3c[nH]c(=O)cc3C(F)(F)F)c(N3C[C@@H](C)N(C)[C@@H](C)C3)cc2F)cn1 [Example 130, N-[4-fluoro-5-(2-propan-2-yloxypyrimidin-5-yl)-2-[(3R,5S)-3,4,5-trimethylpiperazin-1-yl]phenyl]-6-oxo-4-(trifluoromethyl)-1H-pyridine-3-carboxamide]",9.18
7,"C[C@@H]1CN(c2cc(F)c(-c3ccc(C#N)nc3)cc2NC(=O)c2c[nH]c(=O)cc2C(F)(F)F)C[C@H](C)N1C [Example 131, N-[5-(6-cyanopyridin-3-yl)-4-fluoro-2-[(3R,5S)-3,4,5-trimethylpiperazin-1-yl]phenyl]-6-oxo-4-(trifluoromethyl)-1H-pyridine-3-carboxamide]",8.61
8,"Cc1cc(-c2cc(NC(=O)c3c[nH]c(=O)cc3C(F)(F)F)c(N3C[C@@H](C)N(C)[C@@H](C)C3)cc2F)cnc1C#N [Example 132, N-[5-(6-cyano-5-methylpyridin-3-yl)-4-fluoro-2-[(3R,5S)-3,4,5-trimethylpiperazin-1-yl]phenyl]-6-oxo-4-(trifluoromethyl)-1H-pyridine-3-carboxamide]",8.85
9,"C[C@@H]1CN(c2cc(F)c(-c3ccnc(C#N)c3)cc2NC(=O)c2c[nH]c(=O)cc2C(F)(F)F)C[C@H](C)N1C [Example 133, N-[5-(2-cyanopyridin-4-yl)-4-fluoro-2-[(3R,5S)-3,4,5-trimethylpiperazin-1-yl]phenyl]-6-oxo-4-(trifluoromethyl)-1H-pyridine-3-carboxamide]",8.88
10,"COc1cc(-c2cc(NC(=O)c3c[nH]c(=O)cc3C(F)(F)F)c(N3C[C@@H](C)N(C)[C@@H](C)C3)cc2F)cc(C(F)(F)F)n1 [Example 134, N-[4-fluoro-5-[2-methoxy-6-(trifluoromethyl)pyridin-4-yl]-2-[(3R,5S)-3,4,5-trimethylpiperazin-1-yl]phenyl]-6-oxo-4-(trifluoromethyl)-1H-pyridine-3-carboxamide]",9.00
11,"COc1cc(-c2cc(NC(=O)c3c[nH]c(=O)cc3C(F)(F)F)c(N3C[C@@H](C)N(C)[C@@H](C)C3)cc2F)cc(C)n1 [Example 135, N-[4-fluoro-5-(2-methoxy-6-methylpyridin-4-yl)-2-[(3R,5S)-3,4,5-trimethylpiperazin-1-yl]phenyl]-6-oxo-4-(trifluoromethyl)-1H-pyridine-3-carboxamide]",8.55
12,"COc1ncc(-c2cc(NC(=O)c3c[nH]c(=O)cc3C(F)(F)F)c(N3C[C@@H](C)N(C)[C@@H](C)C3)cc2F)cc1C(F)(F)F [Example 136, N-[4-fluoro-5-[6-methoxy-5-(trifluoromethyl)pyridin-3-yl]-2-[(3R,5S)-3,4,5-trimethylpiperazin-1-yl]phenyl]-6-oxo-4-(trifluoromethyl)-1H-pyridine-3-carboxamide]",9.33
13,"COc1cc(C#N)c(C(=O)Nc2cc(-c3cnc(N4CCOCC4)nc3)c(F)cc2N2C[C@@H](C)N(C)[C@@H](C)C2)cn1 [Example 137, 4-cyano-N-[4-fluoro-5-(2-morpholin-4-ylpyrimidin-5-yl)-2-[(3R,5S)-3,4,5-trimethylpiperazin-1-yl]phenyl]-6-methoxypyridine-3-carboxamide]",7.71
14,"C[C@@H]1CN(c2cc(F)c(-c3cnc(N4CCOCC4)nc3)cc2NC(=O)c2c(Cl)cccc2Cl)C[C@H](C)N1C [Example 139, 2,6-dichloro-N-[4-fluoro-5-(2-morpholin-4-ylpyrimidin-5-yl)-2-[(3R,5S)-3,4,5-trimethylpiperazin-1-yl]phenyl]benzamide]",8.23
15,"C[C@@H]1CN(c2cc(F)c(-c3cnc(N4CCOCC4)nc3)cc2NC(=O)c2cccc(Cl)c2F)C[C@H](C)N1C [Example 140, 3-chloro-2-fluoro-N-[4-fluoro-5-(2-morpholin-4-ylpyrimidin-5-yl)-2-[(3R,5S)-3,4,5-trimethylpiperazin-1-yl]phenyl]benzamide]",7.73
16,"C[C@@H]1CN(c2cc(F)c(-c3cnc(N4CCOCC4)nc3)cc2NC(=O)c2ccccc2C(F)(F)F)C[C@H](C)N1C [Example 141, N-[4-fluoro-5-(2-morpholin-4-ylpyrimidin-5-yl)-2-[(3R,5S)-3,4,5-trimethylpiperazin-1-yl]phenyl]-2-(trifluoromethyl)benzamide]",7.79
17,"C[C@@H]1CN(c2cc(F)c(-c3ccc(N(C)C)nc3)cc2NC(=O)c2c[nH]c(=O)cc2C(F)(F)F)C[C@H](C)N1C [Example 142, N-[5-[6-(dimethylamino)pyridin-3-yl]-4-fluoro-2-[(3R,5S)-3,4,5-trimethylpiperazin-1-yl]phenyl]-6-oxo-4-(trifluoromethyl)-1H-pyridine-3-carboxamide]",9.01
18,"C[C@@H]1CN(c2cc(F)c(C3=CCN(C(=O)OC(C)(C)C)CC3)cc2NC(=O)c2c[nH]c(=O)cc2C(F)(F)F)C[C@H](C)N1C [Example 143, tert-butyl 4-[2-fluoro-5-[[6-oxo-4-(trifluoromethyl)-1H-pyridine-3-carbonyl]amino]-4-[(3R,5S)-3,4,5-trimethylpiperazin-1-yl]phenyl]-3,6-dihydro-2H-pyridine-1-carboxylate]",8.91
19,"C[C@@H]1CN(c2cc(F)c(-c3ccc(C(F)(F)F)cc3)cc2NC(=O)c2c[nH]c(=O)cc2C(F)(F)F)C[C@H](C)N1C [Example 144, N-[4-fluoro-2-[(3R,5S)-3,4,5-trimethylpiperazin-1-yl]-5-[4-(trifluoromethyl)phenyl]phenyl]-6-oxo-4-(trifluoromethyl)-1H-pyridine-3-carboxamide]",8.22
20,"C[C@@H]1CN(c2cc(F)c(-c3ccc(OC(F)(F)F)cc3)cc2NC(=O)c2c[nH]c(=O)cc2C(F)(F)F)C[C@H](C)N1C [Example 145, N-[4-fluoro-2-[(3R,5S)-3,4,5-trimethylpiperazin-1-yl]-5-[4-(trifluoromethoxy)phenyl]phenyl]-6-oxo-4-(trifluoromethyl)-1H-pyridine-3-carboxamide]",8.17
21,"C[C@@H]1CN(c2cc(F)c(-c3ccccc3)cc2NC(=O)c2c[nH]c(=O)cc2C(F)(F)F)C[C@H](C)N1C [Example 146, N-[4-fluoro-5-phenyl-2-[(3R,5S)-3,4,5-trimethylpiperazin-1-yl]phenyl]-6-oxo-4-(trifluoromethyl)-1H-pyridine-3-carboxamide]",8.22
22,"C[C@@H]1CN(c2cc(F)c(-c3ccc(Cl)cc3)cc2NC(=O)c2c[nH]c(=O)cc2C(F)(F)F)C[C@H](C)N1C [Example 147, N-[5-(4-chlorophenyl)-4-fluoro-2-[(3R,5S)-3,4,5-trimethylpiperazin-1-yl]phenyl]-6-oxo-4-(trifluoromethyl)-1H-pyridine-3-carboxamide]",8.35
23,"COc1ccc(CN2CC=C(c3cc(NC(=O)c4c[nH]c(=O)cc4C(F)(F)F)c(N4C[C@@H](C)N(C)[C@@H](C)C4)cc3F)CC2)cc1 [Example 148, N-[4-fluoro-5-[1-[(4-methoxyphenyl)methyl]-3,6-dihydro-2H-pyridin-4-yl]-2-[(3R,5S)-3,4,5-trimethylpiperazin-1-yl]phenyl]-6-oxo-4-(trifluoromethyl)-1H-pyridine-3-carboxamide]",9.27
24,"Cc1cc(-c2cc(NC(=O)c3c[nH]c(=O)cc3C(F)(F)F)c(N3C[C@@H](C)N(C)[C@@H](C)C3)cc2F)cnn1 [Example 149, N-[4-fluoro-5-(6-methylpyridazin-4-yl)-2-[(3R,5S)-3,4,5-trimethylpiperazin-1-yl]phenyl]-6-oxo-4-(trifluoromethyl)-1H-pyridine-3-carboxamide]",8.33
25,"CC(C)CN1CC=C(c2cc(NC(=O)c3c[nH]c(=O)cc3C(F)(F)F)c(N3C[C@@H](C)N(C)[C@@H](C)C3)cc2F)CC1 [Example 150, N-[4-fluoro-5-[1-(2-methylpropyl)-3,6-dihydro-2H-pyridin-4-yl]-2-[(3R,5S)-3,4,5-trimethylpiperazin-1-yl]phenyl]-6-oxo-4-(trifluoromethyl)-1H-pyridine-3-carboxamide]",8.05
26,"C[C@@H]1CN(c2cc(F)c(C3=CCN(CC4CC4)CC3)cc2NC(=O)c2c[nH]c(=O)cc2C(F)(F)F)C[C@H](C)N1C [Example 151, N-[5-[1-(cyclopropylmethyl)-3,6-dihydro-2H-pyridin-4-yl]-4-fluoro-2-[(3R,5S)-3,4,5-trimethylpiperazin-1-yl]phenyl]-6-oxo-4-(trifluoromethyl)-1H-pyridine-3-carboxamide]",8.13
